In patent US10532040B2, “Methods of treating cancer with herbacetin” (REGENTS OF THE UNIVERSITY OF MINNESOTA, priority 2011, dated 2020):
“Also recorded” adds a separate entry of the source.

What was measured:
[1] = test system: HCT116, DLD1, HT29 colon cancer cells; test: growth of colon cancer cells, MTS assay; type: cell-based
Method: FIGS. 3A-3H. Anticancer effect of herbacetin. (a) The effect of herbacetin on ODC activity in colon cancer cell lines was measured as the release of CO2 from L-[1-C^14] ornithine. […] (b) The effect of herbacetin and DFMO on the growth of colon cancer cells and (c) TPA-induced JB6 cell growth was compared. Cells were incubated for 72 h and growth was estimated using the MTS assay. (d) The effect of herbacetin on anchorage independent HCT116 colon cancer cell growth and (e) TPA-induced JB6 cell transformation was assessed. Cells were incubated for 2 weeks and then colonies were counted using a microscope and the Image-Pro PLUS (v.6) computer software program. The effect of herbacetin on AP-1 reporter activity in (f) HCT116 colon cancer cells and (g) TPA-induced AP-1 reporter activity in JB6 mouse epidermal cells was analyzed using the substrates included in the reporter assay system. Data are represented as means±S.D. of triplicate values from three independent experiments and the asterisk (*) indicates a significant (p<0.05) effect of herbacetin or DFMO compared to untreated or TPA-treated controls. (h) The effect of herbacetin on the phosphorylation of ERK1 and ERK2 in HCT116 colon cancer cells was determined by Western blotting. Similar results were observed from two independent experiments.

[2] = test system: HCT116 cells; test: HCT116 xenograft in athymic nude mice; type: in vivo, mouse
Method: Athymic nude mice were inoculated in the right flank with HCT116 cells. Tumors were allowed to grow to an average of 40 mm^3 and then mice were divided into four equal groups with the same average tumor volume (FIG. 10). Treatment was initiated on Day 8 and continued to Day 20. […] No difference between treatment with 0.4 mg/kg B.W. herbacetin, 2 mg/kg B.W herbacetin or 200 mg/kg DFMO was observed.

[3] = test system: ERKs/RSK2 signaling; test: TPA- or EGF-induced phosphorylation of ERK1 and ERK2 in JB6 cells, Western blotting; type: cell-based, mouse; settings: herbacetin 2 h then TPA or EGF 15 min
Method: FIGS. 6A-6B. The effect of herbacetin on (a) TPA- or (b) EGF-induced phosphorylation of ERK1 and ERK2 in JB6 mouse epidermal cells was analyzed by Western blotting. Serum-starved (0.1% FBS; 24 h) cells were treated with various doses of herbacetin for 2 h followed by treatment with TPA for 15 min.
We determined whether herbacetin affected the reporter activity of the MAP kinase target transcription factor, activator protein-1 (AP-1), in HCT116 cells or JB6 cells stimulated with TPA. HCT116 cells were treated with herbacetin for 48 hand JB6 cells were pre-treated with herbacetin for 2 h before stimulation with TPA for 48 h. AP-1 reporter activity was then measured (FIG. 3f, g) and the activity was attenuated by herbacetin in colon cancer cells and in TPA-activated JB6 cells. […] We next examined whether herbacetin directly suppresses phosphorylation of ERK1/2. JB6 cells were treated with TPA or EGF for 15 min after pre-treatment with herbacetin for 2 h and protein expression was analyzed by Western blotting (Supplementary FIG. 2a,b).

[4] = test system: SKH-1 hairless mice, DMBA/TPA; test: TPA-induced skin cancer prevention study, 30 weeks (Example 2); type: in vivo, mouse
Method: For the effect of herbacetin on preventing TPA-induced skin cancer, SKH-1 hairless mice were divided into 5 groups of 26-30 mice/group. All mice were initiated with 200 nmol DMBA applied topically on the dorsal surface. Two weeks later, TPA (17 nmol) was applied topically on the dorsal surface twice a week for a total of 30 weeks. Four groups of mice were treated with herbacetin (20, 100, 200, or 500 nmol) 30 min before application of TPA.

[5] = test system: activator protein-1, Cox2, NF-kappaB; test: promoter activities (preliminary data); type: cell-based
[6] = biological target: T1, ODC (Homo sapiens, UniProt P11926); test: ODC activity in colon cancer cells (HCT116, DLD-1 lysates); type: cell-based; design: endogenous in cells; host or cells: HCT116 and DLD-1 colon cancer cells (lysates); settings: compared with DFMO
T1 sequence (P11926 1-461): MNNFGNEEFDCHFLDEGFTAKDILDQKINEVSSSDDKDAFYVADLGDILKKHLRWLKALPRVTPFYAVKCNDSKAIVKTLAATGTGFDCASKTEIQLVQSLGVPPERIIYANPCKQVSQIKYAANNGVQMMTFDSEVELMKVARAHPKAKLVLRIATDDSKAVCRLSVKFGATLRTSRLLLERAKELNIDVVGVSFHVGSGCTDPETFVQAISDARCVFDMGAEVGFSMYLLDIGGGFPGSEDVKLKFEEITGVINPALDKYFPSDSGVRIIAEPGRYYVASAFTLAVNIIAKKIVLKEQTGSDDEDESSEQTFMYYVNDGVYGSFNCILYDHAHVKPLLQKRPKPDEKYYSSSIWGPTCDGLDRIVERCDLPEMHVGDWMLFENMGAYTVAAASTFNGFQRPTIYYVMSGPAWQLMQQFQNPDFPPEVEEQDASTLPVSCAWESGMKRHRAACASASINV
Method: FIGS. 5A-5E. The effect of herbacetin on ODC activity was assessed in (a) DLD-1 and (b) HCT116 colon cancer cells. Cell lysates were incubated for 15 min with reaction buffer and different doses of herbacetin or DFMO and then incubated at 37° C. for 1 h. Herbacetin (c) and kaempferol (d) were modeled as allosteric inhibitors with the ODC crystal structure. (e) The effect of herbacetin or kaempferol on ODC activity was assessed using a human ODC recombinant protein. Each reaction was incubated at 37° C. for 1 h and ODC activity was measured as the release of CO2 from L-[1-C^14] ornithine. Data are represented as means±S.D. of triplicate values. The asterisk (*) indicates a significant difference (p<0.05) between herbacetin-treated samples compared to untreated or kaempferol-treated samples.
ODC activity was measured as the release of CO2 from L-[1-C^14] ornithine as previously described ([…]).

[7] = test system: SKH-1 hairless mice, solar UV-induced skin tumors; test: solar UV induced-skin tumor mouse model; type: in vivo; settings: herbacetin 100 or 500 nmol topical for 7 weeks; relative to vehicle group
Method: Mice were exposed to solar-UV (48 kJ/UVA, 2.9 kJ/UVB) 3 times weekly for 12 weeks. The solar UV treatment was discontinued and at twenty weeks later, mice were topically treated with 100 or 500 nmol of herbacetin (in acetone) for an additional 7 weeks. Mice (8-9 weeks old) were divided into three groups: 1) solar UV+vehicle group (n=4); 2) solar UV+100 nmol of herbacetin (n=4) group; 3) solar UV+500 nmol of herbacetin (n=4). The volume of tumors per mouse was recorded weekly.

SMILES: O=c1c(O)c(-c2ccc(O)cc2)oc2c(O)c(O)cc(O)c12 [herbacetin, 3,5,7,8,4′-Pentahydroxyflavone]
- inhibitory effect on growth of colon cancer cell lines ([1]; 72 h, MTS, HCT116, DLD1, HT29): greatest inhibitory effect on colon cancer cells that expressed higher levels of ODC
- proliferation and anchorage independent cell growth of several colon cancer cell lines ([1]; preliminary data): decrease proliferation and anchorage independent cell growth
- potency as therapeutic agent relative to DFMO ([2]; based on concentration): much more potent
- tumor volume, comparison between treated groups ([2]; herbacetin 0.4 mg/kg, 2 mg/kg, DFMO 200 mg/kg): No difference
- tumor volume, treated groups vs vehicle-treated group ([2]; herbacetin 0.4 or 2 mg/kg B.W., DFMO 200 mg/kg, Day 8 to Day 20): vehicle-treated group were significantly large in volume than any of the three treated groups
- direct suppression of ERKs/RSK2 signaling [3]: does not occur directly through the suppression of ERKs/RSK2 signaling
- tumor growth induced by TPA ([4]; herbacetin 20, 100, 200 or 500 nmol 30 min before TPA, 30 weeks): decreased tumor growth
- mice developing papillomas (incidence) ([4]; vs untreated control mice): Fewer mice developed papillomas
- number of papillomas ([4]; vs untreated control mice): fewer papillomas (dose-dependent)
- tumor size ([4]; vs untreated controls): significantly smaller tumors
- promoter activities of activator protein-1, Cox2, NF-kappaB [5]: suppress promoter activities
- suppression of ODC activity [6]: more effectively; also recorded: markedly more effective than DFMO
- size (volume) of solar UV-induced skin tumors [7]: significantly decreased
